In US20250289789A1, “REVERSIBLE LYSINE COVALENT MODIFIERS OF CDK2 AND USES THEREOF” (Terremoto Biosciences, Inc., priority 2023, published 2025):
pIC50: −log10 of the molar value.

How the values were obtained:
Format in all cases: cell-based
[1] = biological target: T1, CDK4-NanoLuc fusion with CCND1 in 293T or 293 cells (Homo sapiens, UniProt P11802); test: NanoBRET Target Engagement (TE) Intracellular Kinase Assay, CDK4/CCND1; conditions: NanoBRET TE intracellular kinase assay, 2-hour incubation, read-out: NanoBRET-CDK4/D1 IC50
T1 construct: host or cells: 293T (ATCC CRL-3216) or 293 (ATCC CRL-1573)
Protocol: (§1) Inhibitory effects of compounds were measured in NanoBRET TE Intracellular Kinase Assay. […] Cells were co-transfected with 1 μg/mL of CDK-NanoLuc Fusion Vector (Promega; NV2701 for CDK1, NV2781 for CDK2, NV2811 for CDK4, NV2841 for CDK6) and 1 μg/mL of the corresponding Cyclin Expression Vector (Promega; NV2601 for CCNB1, NV2641 for CCNE1, NV2621 for CCND1, NV2631 for CCND3) using FuGENE HD Transfection Reagent (Promega; E2311). […] 20 uL/well of 3× Intracellular TE Nano-Glo Substrate/Inhibitor (Promega; N2162) were added to 384-well plates and incubated for 3 minutes at room temperature. NanoBRET signals (donor emission wavelength at 450 nm, acceptor emission wavelength at 610 nm) were measured using Envision plate reader (PerkinElmer). NanoBRET ratio was calculated by: BRET Ratio=raw signal for acceptor/raw signal for donor. Dose response curve normalized to DMSO control was plotted using four-parameter logistic model for IC50 calculation.

[2] = biological target: T2, CDK2-NanoLuc fusion with CCNE1 in 293T or 293 cells (Homo sapiens, UniProt P24941); test: NanoBRET Target Engagement (TE) Intracellular Kinase Assay, CDK2/CCNE1; conditions: NanoBRET TE intracellular kinase assay, 2-hour incubation, read-out: NanoBRET-CDK2/E1 IC50
T2 construct: host or cells: 293T (ATCC CRL-3216) or 293 (ATCC CRL-1573)
Protocol: as §1

[3] = tested on: Phospho-Rb Ser807/811 in OVCAR3 cells; test: OVCAR3 Phospho-Rb Ser807/811 HTRF assay; conditions: Homo sapiens, OVCAR-3, 1 h, OVCAR3 cells, Phospho-Rb Ser807/811 HTRF, 1 hour incubation; read-out: pRb-OVCAR3 IC50
Protocol: Cells were trypsinized and resuspended in 1 mM hydroxyurea (Sigma; H8627), 90% RPMI and 10% fetal bovine serum. […] Dose response curve normalized to DMSO control was plotted using four-parameter logistic model for IC50 calculation.

T1 sequence (P11802 whole entry, the tested form may be a part): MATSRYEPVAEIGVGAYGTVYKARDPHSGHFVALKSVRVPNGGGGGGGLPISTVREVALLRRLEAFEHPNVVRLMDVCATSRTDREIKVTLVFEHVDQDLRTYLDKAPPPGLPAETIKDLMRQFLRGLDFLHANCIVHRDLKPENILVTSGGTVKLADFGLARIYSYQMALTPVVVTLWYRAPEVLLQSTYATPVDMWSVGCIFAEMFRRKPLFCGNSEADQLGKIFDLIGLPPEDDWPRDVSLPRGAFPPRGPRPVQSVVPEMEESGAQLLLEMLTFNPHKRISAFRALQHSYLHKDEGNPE
T1 sequence (P24385 whole entry partner, the tested form may be a part): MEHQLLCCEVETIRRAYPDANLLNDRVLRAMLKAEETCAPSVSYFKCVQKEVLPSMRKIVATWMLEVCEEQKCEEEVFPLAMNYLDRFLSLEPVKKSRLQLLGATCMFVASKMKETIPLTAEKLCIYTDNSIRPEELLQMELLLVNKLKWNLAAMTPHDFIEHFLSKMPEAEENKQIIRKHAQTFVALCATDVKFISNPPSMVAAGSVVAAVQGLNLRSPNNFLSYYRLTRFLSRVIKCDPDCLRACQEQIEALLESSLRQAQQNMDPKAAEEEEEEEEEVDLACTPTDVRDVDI

SMILES	pIC50 [1]	pIC50 [2]	pIC50 [3]
COc1cc(O)c(C=O)c(OCC(=O)Nc2cc([C@H]3CC[C@@H](OC(=O)N4C[C@H]5CC[C@@H]4CO5)C3)[nH]n2)c1 [Compound 158]	5.41	8.25	7.61
COc1cc(O)c(C=O)c(OCC(=O)Nc2cc([C@H]3CC[C@@H](OC(=O)NC(C)(C)C#N)C3)[nH]n2)c1 [Compound 159]	5.32	7.97	7.37
COc1cc(O)c(C=O)c(OCC(=O)Nc2cc([C@H]3CC[C@@H](OC(=O)NN(C)C)C3)[nH]n2)c1 [Compound 160]	< 5.00	8.13	7.10
Cc1cc(O)c(C=O)c(OCC(=O)Nc2cc([C@H]3CC[C@@H](OC(=O)N4C5CCC4CC5)C3)[nH]n2)c1 [Compound 161]	5.13	8.55	7.16
Cc1cc(O)c(C=O)c(OCC(=O)Nc2cc([C@H]3CC[C@@H](OC(=O)N4CCC4(C)C)C3)[nH]n2)c1 [Compound 162]	5.46	8.51	7.43
COc1cc(O)c(C=O)c(OCC(=O)Nc2cc([C@H]3CC[C@@H](OC(=O)N[C@@H](C)CC#N)C3)[nH]n2)c1 [Compound 163]	5.20	7.99	7.56
COc1cc(O)c(C=O)c(OCC(=O)Nc2cc([C@H]3CC[C@@H](OC(=O)Nc4ccccc4)C3)[nH]n2)c1 [Compound 164]	5.23	8.02	6.52
COc1cc(O)c(C=O)c(OCC(=O)Nc2cc([C@H]3CC[C@@H](OC(=O)Nc4ccncc4)C3)[nH]n2)c1 [Compound 165]	5.10	7.89	6.42
COc1cc(O)c(C=O)c(OCC(=O)Nc2cc([C@H]3CC[C@@H](OC(=O)NCc4ccccn4)C3)[nH]n2)c1 [Compound 166]	< 5.00	7.99	6.78
COc1cc(O)c(C=O)c(OCC(=O)Nc2cc([C@H]3CC[C@@H](OC(=O)N[C@@H](C)CC(F)(F)F)C3)[nH]n2)c1 [Compound 167]	6.08	8.55	7.61
CCC[C@H](C)NC(=O)O[C@@H]1CC[C@H](c2cc(NC(=O)COc3cc(OC)cc(O)c3C=O)n[nH]2)C1 [Compound 168]	5.49	8.61	7.53
CCN(C(=O)O[C@@H]1CC[C@H](c2cc(NC(=O)COc3cc(OC)cc(O)c3C=O)n[nH]2)C1)C(C)C [Compound 169]	6.11	8.64	7.64
COc1cc(O)c(C=O)c(OCC(=O)Nc2cc([C@H]3CC[C@@H](OC(=O)NCc4ccccc4)C3)[nH]n2)c1 [Compound 170]	5.22	8.51	7.15
COc1cc(O)c(C=O)c(OCC(=O)Nc2cc([C@H]3CC[C@@H](OC(=O)N(OC)C(C)C)C3)[nH]n2)c1 [Compound 171]	< 5.00	8.49	6.97
COc1cc(O)c(C=O)c(OCC(=O)Nc2cc([C@H]3CC[C@@H](OC(=O)N(O)C(C)C)C3)[nH]n2)c1 [Compound 173]	5.27	8.40	7.47
COc1cc(O)c(C=O)c2c1C[C@@H](C(=O)Nc1cc([C@H]3CC[C@@H](OC(=O)NC(C)C)C3)[nH]n1)C2 [Compound 174, (1R,3S)-3-(3-((S)-4-formyl-5-hydroxy-7-methoxy-2,3-dihydro-1H-indene-2-carboxamido)-1H-pyrazol-5-yl)cyclopentyl isopropylcarbamate]	6.18	8.49	7.97
COc1cc(O)c(C=O)c(OCC(=O)Nc2cc([C@H]3CC[C@@H](OC(=O)NCCC(F)(F)F)C3)[nH]n2)c1 [Compound 175]	5.07	8.68	7.77

SMILES	pIC50 [1]	pIC50 [2]	pIC50 [3]
COCC(C)(C)NC(=O)O[C@@H]1CC[C@H](c2cc(NC(=O)COc3cc(OC)cc(O)c3C=O)n[nH]2)C1 [Compound 176]	5.47	8.38	7.24
COCC[C@H](C)NC(=O)O[C@@H]1CC[C@H](c2cc(NC(=O)COc3cc(OC)cc(O)c3C=O)n[nH]2)C1 [Compound 177]	< 5.00	8.50	7.53
COc1cc(O)c(C=O)c(OCC(=O)Nc2cc([C@H]3CC[C@@H](OC(=O)NCC4CCC4)C3)[nH]n2)c1 [Compound 178]	5.25	8.68	7.27
COc1cc(O)c(C=O)c(OCC(=O)Nc2cc([C@H]3CC[C@@H](OC(=O)NCC4COC4)C3)[nH]n2)c1 [Compound 179]	< 5.00	7.85	6.94
CCN(CC)C(=O)O[C@@H]1CC[C@H](c2cc(NC(=O)COc3cc(OC)cc(O)c3C=O)n[nH]2)C1 [Compound 180]	5.80	8.57	7.63
CCCCNC(=O)O[C@@H]1CC[C@H](c2cc(NC(=O)COc3cc(OC)cc(O)c3C=O)n[nH]2)C1 [Compound 181]	5.30	8.93	7.55
CCCNC(=O)O[C@H]1C[C@@H](c2cc(NC(=O)COc3cc(OC)cc(O)c3C=O)n[nH]2)C1 [Compound 182, (1s,3s)-3-(3-(2-(2-formyl-3-hydroxy-5-methoxyphenoxy)acetamido)-1H-pyrazol-5-yl)cyclobutyl propylcarbamate]	< 5.00	8.20	7.18
O=Cc1c(O)cc(Cl)cc1OCC(=O)Nc1cc([C@H]2CC[C@@H](OC(=O)N3C4COCC3C4)C2)[nH]n1 [Compound 183]	5.38	8.00	6.85
CC[C@H](C)NC(=O)O[C@@H]1CC[C@H](c2cc(NC(=O)COc3cc(OC)cc(O)c3C=O)n[nH]2)C1 [Compound 184]	5.84	8.82	7.69
COc1cc(O)c(C=O)c(OCC(=O)Nc2cc([C@H]3CC[C@@H](OC(=O)NC4CN(C)C4)C3)[nH]n2)c1 [Compound 185]	< 5.00	6.35	6.44
O=Cc1c(O)cc(OC(F)F)cc1OCC(=O)Nc1cc([C@H]2CC[C@@H](OC(=O)N3C4COCC3C4)C2)[nH]n1 [Compound 186]	5.18	7.66	6.98
COc1cc(O)c(C=O)c(OCC(=O)Nc2cc([C@H]3CC[C@@H](OC(=O)N4CC(N(C)C)C4)C3)[nH]n2)c1 [Compound 187]	< 5.00	7.74	7.19
COc1cc(O)c(C=O)c(OCC(=O)Nc2cc([C@H]3CC[C@@H](OC(=O)NCCN(C)C)C3)[nH]n2)c1 [Compound 188]	< 5.00	6.47	6.43
COc1cc(O)c(C=O)c(OCC(=O)Nc2cc([C@H]3CC[C@@H](OC(=O)N4CC5CC(C4)N5C)C3)[nH]n2)c1 [Compound 189]	< 5.00	6.80	6.70
COc1cc(O)c(C=O)c(OCC(=O)Nc2cc([C@H]3CC[C@@H](OC(=O)N4C5CC4CN(C)C5)C3)[nH]n2)c1 [Compound 190]	5.38	8.10	7.46
COc1cc(O)c(C=O)c(OCC(=O)Nc2cc([C@H]3CC[C@@H](OC(=O)N4CC5(CCN5C)C4)C3)[nH]n2)c1 [Compound 191]	< 5.00	7.60	6.90
